Positions of bridges follow the written chain, without caps; N, C: chain ends. Non-standard residues stand in square brackets, D forms with d. Residues, ends and D or L forms follow the SMILES beside them. *: point of attachment. X1 = NCc1ccc(CC(=O)*)cc1; Aib = CC(C)(N)C(=O)O
Columns and labels:
human IR-A (holoIR-A) = target: T1, human IR-A (holoIR-A) (Homo sapiens, UniProt P06213); assay: holoIR-A competitive radioligand binding assay (scintillation proximity assay)
T1 construct: expressed in transfected cells; host or cells: HEK293 (ATCC #CRL-1573), stably transfected; membrane preparation
How it was run: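 Membranes from HEK293 cells stably expressing C9-tagged human IR-A were used in a WGA-bead SPA competition assay in 50 mM Tris-HCl pH 7.5, 150 mM NaCl, 0.1% fatty-acid-free BSA. Ten-point 3-fold dilutions were incubated 10 h at room temperature before scintillation counting. Percent specific inhibition was calculated after nonspecific-binding correction, from three independent runs.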

[1] = tested on: [holoIR-A]-expressing IM-9 human lymphoblast cells; assay: holoIR-A accelerated dissociation assay of pre-bound 125I-insulin; format: binding; conditions: IM-9 cells, 1:40 dilution, 16 °C, 30 min; n = 3
Procedure: Ice-cold 15-25 pM ^125I-insulin solution was added to IM-9 cells and incubated at 4 °C for 2.5 h for pre-bound experiments. […] Following receptor and ^125I-insulin pre-bound, the mix was quickly centrifugated and supernatant was removed. The bound ^125I-insulin and IM-9 cells were then resuspended with 16 °C pre-equilibrated HBB, pH 7.6. The ^125I-ligand/IM-9 cell mixture was aliquoted to cold compounds at 1:40 ratio, respectively. The reactions were incubated at 16 °C for 30 min to allow dissociation of prebound ^125I-insulin and then harvested by centrifugation and aspiration of the supernatant. The radioactivity of cell pellets was determined by gamma counter (Perkin Elmer). Samples were tested in three independent assay runs on three different days. Individual measurements are provided as Source Data.

[2] = target: T2, human holoIR-A over-expressed in HEK293 cells (Homo sapiens, UniProt P06213); assay: holoIR-A auto-phosphorylation assay (ELISA); format: cell-based
T2 construct: expressed in transfected cells; host or cells: HEK293, stably transfected
Procedure: Phosphorylation was quantified using an ELISA technique. Ninety-six well, flat-bottom microplates (Greiner Bio-One) were pre-coated with 2 µg mL^−1 anti-C9 monoclonal antibody (Rho 1D4; University of British Columbia)[27] in 20 mM sodium carbonate, pH 9.6, at 4 °C for overnight prior to the assay. On the assay day, plates were washed 3× with 0.1% Tween in 50 mM Tris Buffer Saline, pH 7.5 (TBST), and then blocked for greater than 1 h at room temperature (RT) with 1% BSA (Sigma) in TBST.
Stably transfected HEK293 cells over-expressing human holoIR-A containing a C-terminal C9 epitope tag ([…]), were plated at 6 × 10^4 cells per well serum-starved using 0.1% BSA in DMEM (Gibco) for overnight at standard tissue culture condition. […] After a 15-min incubation in lysis buffer at 4 °C, the lysate was transferred to anti-C9 antibody coated capture plate (Rho 1D4; University of British Columbia)[27]. […] After a 1 h incubation at room temperature, the secondary antibody was removed by washing 3× with TBST. Signal detection occurred with the addition of TMB, an HRP substrate (Pierce). After 5–10 min, the reaction was stopped by adding an equal volume of 2 M H2SO4, and the absorbance readings at 450 nm (A450) were recorded using a Envision plate reader (PerkinElmer). Samples were tested in three independent assay runs on three different days.
Percent specific response (y-axis) was plotted versus the log concentration of compound (x-axis) using Prism Version 9.3.1 (GraphPad Software). Individual measurements are provided as Source Data.

[3] = target: the molecule itself; assay: cryo-EM structure; IM459-complexed hIR-A^ecto, eluted with IM459 from an insulin-affinity column and purified by SEC in TBSA; focussed refinement to ca 5.0 Å

T2 sequence (P06213 28-1370 isoform P06213-2 limits assumed): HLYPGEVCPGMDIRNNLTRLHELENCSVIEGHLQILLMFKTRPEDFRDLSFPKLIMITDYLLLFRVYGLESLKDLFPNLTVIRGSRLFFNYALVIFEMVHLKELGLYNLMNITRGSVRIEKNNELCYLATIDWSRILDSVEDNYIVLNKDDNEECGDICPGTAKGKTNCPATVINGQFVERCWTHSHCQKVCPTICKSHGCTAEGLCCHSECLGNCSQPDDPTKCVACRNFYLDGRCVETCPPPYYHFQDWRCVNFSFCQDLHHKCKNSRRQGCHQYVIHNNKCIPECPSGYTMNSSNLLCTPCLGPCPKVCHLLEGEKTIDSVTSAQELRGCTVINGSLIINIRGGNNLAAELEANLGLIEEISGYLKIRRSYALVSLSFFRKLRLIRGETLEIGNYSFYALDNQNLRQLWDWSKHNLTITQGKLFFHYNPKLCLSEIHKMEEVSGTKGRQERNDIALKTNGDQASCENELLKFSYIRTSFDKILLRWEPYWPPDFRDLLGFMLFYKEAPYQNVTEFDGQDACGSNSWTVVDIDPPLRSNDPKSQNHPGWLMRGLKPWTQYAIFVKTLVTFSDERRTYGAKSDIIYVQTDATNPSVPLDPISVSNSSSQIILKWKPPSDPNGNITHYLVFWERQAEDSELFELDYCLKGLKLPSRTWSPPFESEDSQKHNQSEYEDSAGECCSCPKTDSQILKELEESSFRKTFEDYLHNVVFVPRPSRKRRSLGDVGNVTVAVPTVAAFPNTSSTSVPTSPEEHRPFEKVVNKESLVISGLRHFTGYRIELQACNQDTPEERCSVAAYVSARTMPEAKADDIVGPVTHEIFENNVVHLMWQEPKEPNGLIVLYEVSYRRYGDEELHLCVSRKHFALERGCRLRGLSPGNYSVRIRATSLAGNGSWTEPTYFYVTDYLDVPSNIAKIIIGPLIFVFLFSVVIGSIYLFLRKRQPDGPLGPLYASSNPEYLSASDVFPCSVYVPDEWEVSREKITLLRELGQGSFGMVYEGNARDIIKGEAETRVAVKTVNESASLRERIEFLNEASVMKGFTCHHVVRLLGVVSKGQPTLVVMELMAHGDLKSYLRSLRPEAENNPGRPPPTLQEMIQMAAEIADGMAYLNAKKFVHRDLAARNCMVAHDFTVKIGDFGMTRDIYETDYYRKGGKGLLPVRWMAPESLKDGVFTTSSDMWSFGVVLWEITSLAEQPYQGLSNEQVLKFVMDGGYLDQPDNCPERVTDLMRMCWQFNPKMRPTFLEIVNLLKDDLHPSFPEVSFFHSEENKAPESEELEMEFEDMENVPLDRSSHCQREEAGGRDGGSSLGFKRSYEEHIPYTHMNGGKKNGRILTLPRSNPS
T2 sequence (P06213 763-1382 partner limits assumed): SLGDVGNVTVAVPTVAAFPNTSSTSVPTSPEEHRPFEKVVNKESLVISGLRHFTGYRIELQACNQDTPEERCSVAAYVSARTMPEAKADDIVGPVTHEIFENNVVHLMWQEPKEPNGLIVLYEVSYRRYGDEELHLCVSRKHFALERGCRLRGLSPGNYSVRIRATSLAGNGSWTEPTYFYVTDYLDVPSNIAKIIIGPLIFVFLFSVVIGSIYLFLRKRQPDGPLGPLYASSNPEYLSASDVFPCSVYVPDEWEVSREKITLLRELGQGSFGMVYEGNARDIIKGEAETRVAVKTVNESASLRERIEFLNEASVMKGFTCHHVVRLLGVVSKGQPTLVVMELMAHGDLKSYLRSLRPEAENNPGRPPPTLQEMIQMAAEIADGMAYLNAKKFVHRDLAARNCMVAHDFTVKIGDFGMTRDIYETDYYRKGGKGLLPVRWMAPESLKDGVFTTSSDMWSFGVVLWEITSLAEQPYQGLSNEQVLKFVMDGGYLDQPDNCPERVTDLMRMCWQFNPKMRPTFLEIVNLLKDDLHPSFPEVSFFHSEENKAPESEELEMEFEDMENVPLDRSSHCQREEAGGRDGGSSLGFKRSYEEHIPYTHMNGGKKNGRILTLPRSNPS
T1 sequence (P06213 28-1370 isoform P06213-2 limits assumed): as the sequence (P06213 28-1370 isoform P06213-2 limits assumed) above
T1 sequence (P06213 763-1382 partner limits assumed): as the sequence (P06213 763-1382 partner limits assumed) above

Molecule	affinity for hIR (in words) (human IR-A (holoIR-A); comparable to that of BHI)	Ki (human IR-A (holoIR-A); primary peptide set, mean of 3 runs, read-out: IRA Binding Ki Mean)	effect on dissociation of pre-bound I125-insulin tracer from native membrane-expressed hIR (in words) [1]	EC50 ([2]; primary peptide set, mean of 3 runs, read-out: hIRA Phosph EC50 Mean)	hIRA Phosph EC50 Run 1 ([2]; primary peptide set, run 1)	hIRA Phosph EC50 Run 2 ([2]; primary peptide set, run 2)	weaker activity than BHI in an hIR autophosphorylation assay ([2]; relative to biosynthetic human insulin)	binding result [3]
CC[C@H](C)[C@H](NC(=O)[C@H](CCCCN)NC(=O)C(C)(C)NC(=O)[C@H](Cc1c[nH]c2ccccc12)NC(=O)[C@H](CCC(=O)O)NC(=O)[C@H](CCC(N)=O)NC(=O)[C@H](CCC(=O)O)NC(=O)[C@H](CC(C)C)NC(=O)[C@H](CO)NC(=O)Cc1ccc(CN)cc1)C(=O)N[C@@H](CCC(=O)O)C(=O)N[C@H]1CSSC[C@@H](C(=O)N2CCC[C@H]2C(=O)N2CCC[C@H]2C(=O)N[C@@H](CCCCN)C(=O)N[C@@H](CCCCN)C(=O)N[C@@H](C)C(=O)N[C@@H](Cc2ccc(OC)cc2)C(=O)N[C@@H](Cc2ccc(O)cc2)C(=O)N[C@@H](CCCCN)C(=O)N[C@@H](Cc2c[nH]c3ccccc23)C(=O)N[C@@H](Cc2ccccc2)C(=O)N[C@@H](CCC(=O)O)C(=O)N[C@@H](CCCNC(=N)N)C(=O)N[C@@H](CCC(N)=O)C(=O)N[C@@H](CC(C)C)C(=O)N[C@@H](CCCCN)C(N)=O)NC(=O)[C@H](CCCCN)NC(=O)CNC(=O)[C@H](Cc2ccc(O)cc2)NC(=O)[C@H](C(C)C)NC(=O)[C@H](CCC(=O)O)NC1=O [IM459] (X1-SLEQEW[Aib]KIECEVYGKCPPKKAY(Me)YKWFERQLK-NH2; disulfide 11-17)	sub-nM	0.206 nM	decreases dissociation of the pre-bound insulin tracer	7.36 nM	6.534 nM	8.090 nM	~2.5 fold	–
hIR-A^ecto (insulin receptor isoform A ectodomain, residues 1-914) (domain or fragment, human, UniProt P06213-2 28-941, looked up, written as one chain of the [αβ]2 dimer; also called hIR ectodomain) HLYPGEVCPGMDIRNNLTRLHELENCSVIEGHLQILLMFKTRPEDFRDLSFPKLIMITDYLLLFRVYGLESLKDLFPNLTVIRGSRLFFNYALVIFEMVHLKELGLYNLMNITRGSVRIEKNNELCYLATIDWSRILDSVEDNYIVLNKDDNEECGDICPGTAKGKTNCPATVINGQFVERCWTHSHCQKVCPTICKSHGCTAEGLCCHSECLGNCSQPDDPTKCVACRNFYLDGRCVETCPPPYYHFQDWRCVNFSFCQDLHHKCKNSRRQGCHQYVIHNNKCIPECPSGYTMNSSNLLCTPCLGPCPKVCHLLEGEKTIDSVTSAQELRGCTVINGSLIINIRGGNNLAAELEANLGLIEEISGYLKIRRSYALVSLSFFRKLRLIRGETLEIGNYSFYALDNQNLRQLWDWSKHNLTITQGKLFFHYNPKLCLSEIHKMEEVSGTKGRQERNDIALKTNGDQASCENELLKFSYIRTSFDKILLRWEPYWPPDFRDLLGFMLFYKEAPYQNVTEFDGQDACGSNSWTVVDIDPPLRSNDPKSQNHPGWLMRGLKPWTQYAIFVKTLVTFSDERRTYGAKSDIIYVQTDATNPSVPLDPISVSNSSSQIILKWKPPSDPNGNITHYLVFWERQAEDSELFELDYCLKGLKLPSRTWSPPFESEDSQKHNQSEYEDSAGECCSCPKTDSQILKELEESSFRKTFEDYLHNVVFVPRPSRKRRSLGDVGNVTVAVPTVAAFPNTSSTSVPTSPEEHRPFEKVVNKESLVISGLRHFTGYRIELQACNQDTPEERCSVAAYVSARTMPEAKADDIVGPVTHEIFENNVVHLMWQEPKEPNGLIVLYEVSYRRYGDEELHLCVSRKHFALERGCRLRGLSPGNYSVRIRATSLAGNGSWTEPTYFYVTDYLDVPSN	–	–	–	–	–	–	–	binds

Source: publication PMC9519552, “Activation of the human insulin receptor by non-insulin-related peptides” (Nature Communications, 2022)
